# Earlier results, collected in article PMC11949389 (Polish Journal of Microbiology, 2025).
# Where two headings read alike, the source gives them in different places.
# Tests used:
# Staphylococcus aureus [1] = conditions: for MIC: S. aureus, ref Kwiatkowski et al. (2020); for MIC/Sensitivity: Staphylococcus aureus, ref Kwiatkowski et al. 2020, Sayout et al. 2020, Sousa Silveira et al. 2020, Macêdo et al. 2022, Noumi et al. 2023, Sharma et al. 2023
# [2] = test system: Mupirocin-susceptible Staphylococcus aureus; conditions: ref Kwiatkowski et al. 2019
# Klebsiella oxytoca = conditions: ref Sayout et al. 2020
# Enterobacter aerogenes = conditions: ref Sayout et al. 2020
# Escherichia coli = conditions: Escherichia coli; ref Owen et al. 2019; Sayout et al. 2020; Noumi et al. 2023
# Salmonella spp. = conditions: ref Sayout et al. 2020
# Enterobacter cloacae = conditions: ref Sayout et al. 2020
# Acinetobacter baumannii = conditions: ref Sayout et al. 2020
# [3] = test system: Vibrio anguillarum, and Vibrio harveyi; conditions: ref Rossi et al. (2021)
# Klebsiella pneumoniae = conditions: ref Sayout et al. 2020, de Souza et al. 2021, Kwiatkowski et al. 2022
# [4] = test system: Methicillin-resistant Staphylococcus aureus; conditions: MRSA isolates, ref Kwiatkowski et al. (2020)
# [5] = test system: Mupirocin-resistant Staphylococcus aureus; conditions: ref Kwiatkowski et al. 2019
# Candida dubliniensis = conditions: ref Iraji et al. 2020
# Candida parapsilosis = conditions: ref Iraji et al. 2020, Biernasiuk et al. 2022
# Candida albicans [6] = conditions: Candida albicans; ref Sharifzadeh et al. 2019; Iraji et al. 2020; Shaban et al. 2020; Stringaro et al. 2022; Biernasiuk et al. 2022
# Candida tropicalis = conditions: Candida tropicalis; ref Iraji et al. 2020; Stringaro et al. 2022
# Candida krusei = conditions: Candida krusei; ref Sharifzadeh et al. 2019; Iraji et al. 2020; Biernasiuk et al. 2022; Stringaro et al. 2022
# Candida glabrata = conditions: Candida glabrata; ref Sharifzadeh et al. 2019; Iraji et al. 2020; Biernasiuk et al. 2022; Stringaro et al. 2022
# Pseudomonas aeruginosa = conditions: Pseudomonas aeruginosa; ref Owen et al. 2019; Sim et al. 2019; Noumi et al. 2023
# Candida auris [7] = conditions: ref Shaban et al. 2020
# Candida auris [8] = conditions: Candida auris; ref Shaban et al. 2020
# Candida albicans [9] = conditions: ref Shaban et al. 2020
# Staphylococcus aureus [10] = conditions: ref Mastoor et al. 2022
# [11] = in combination with penicillin G
Structure (SMILES),MIC/Sensitivity (Staphylococcus aureus [1]) [mg/mL],MIC/Sensitivity (Klebsiella oxytoca) [mg/mL],MIC/Sensitivity (Enterobacter aerogenes) [mg/mL],MIC/Sensitivity (Escherichia coli) [mg/mL],MIC/Sensitivity (Salmonella spp.) [mg/mL],MIC/Sensitivity (Enterobacter cloacae) [mg/mL],MIC/Sensitivity (Acinetobacter baumannii) [mg/mL],MIC/Sensitivity (Klebsiella pneumoniae) [mg/mL],MIC/Sensitivity (Candida dubliniensis) [mg/mL],MIC/Sensitivity (Candida parapsilosis) [mg/mL],MIC/Sensitivity (Candida albicans [6]) [mg/mL],MIC/Sensitivity (Candida tropicalis) [mg/mL],MIC/Sensitivity (Candida krusei) [mg/mL],MIC/Sensitivity (Candida glabrata) [mg/mL],MIC/Sensitivity (Pseudomonas aeruginosa) [mg/mL],MIC/Sensitivity [2] [mg/mL],also measured
"CC12CCC(CC1)C(C)(C)O2 [1,8-Cineole]",0.00563 to 115.1,0.00563,0.00281,0.00281,0.0075,0.00563,0.00563,0.01125,,,,,,,,307,"MIC (Staphylococcus aureus [1]): 28,800– 57,600 μg/ml; activity at the tested concentrations [3]: no activity; FICI [4, 11]: 0.1; MIC/Sensitivity [5]: 57.56 mg/mL"
CC(C)[C@@H]1CC[C@@H](C)CC1=O [(–)-Menthone],,,,,,,,,894.65 to 14314.4,894.65 to 14314.4,1789.3 to 28628.8,1789.3 to 14314.4,3578.6 to 7157.2,1789.3 to 14314.4,,27.91,MIC/Sensitivity [5]: 6.98 mg/mL
C=CC(C)(CCC=C(C)C)OC(C)=O (stereo not shown) [Linalyl acetate],46.9,,,,,,,,,,,,,,,450.5,"MIC (Staphylococcus aureus [1]): 28,200–112,600 μg/ml; FICI ([4]; in combination with methicillin): 0.4; FICI [4, 11]: 0.6"
O=CC(Br)=Cc1ccccc1 [α-Bromo-trans-cinnamaldehyde],,,,,,,,,,,,,,,,,Mechanisms of action (Staphylococcus aureus [10]): • Gene expression reduction linked to intracellular adhesion

# Second part, led by results:
MIC/Sensitivity (Staphylococcus aureus [1]) [mg/mL],MIC/Sensitivity (Klebsiella oxytoca) [mg/mL],MIC/Sensitivity (Enterobacter aerogenes) [mg/mL],MIC/Sensitivity (Escherichia coli) [mg/mL],MIC/Sensitivity (Salmonella spp.) [mg/mL],MIC/Sensitivity (Enterobacter cloacae) [mg/mL],MIC/Sensitivity (Acinetobacter baumannii) [mg/mL],MIC/Sensitivity (Klebsiella pneumoniae) [mg/mL],MIC/Sensitivity (Candida dubliniensis) [mg/mL],MIC/Sensitivity (Candida parapsilosis) [mg/mL],MIC/Sensitivity (Candida albicans [6]) [mg/mL],MIC/Sensitivity (Candida tropicalis) [mg/mL],MIC/Sensitivity (Candida krusei) [mg/mL],MIC/Sensitivity (Candida glabrata) [mg/mL],MIC/Sensitivity (Pseudomonas aeruginosa) [mg/mL],Structure (SMILES),MIC/Sensitivity [2] [mg/mL],also measured
0.00763,0.01017,0.01525,0.00763,0.0061,0.0061,0.01017,0.00508,246.6126 to 1978.99,59.3697 to 1978.99,494.7475 to 3957.98,246.6126 to 989.495,246.6126 to 3957.98,59.3697 to 989.495,0.0061,CC12CCC(CC1=O)C2(C)C (stereo not shown) [Camphor],,
0.01138,0.01138,0.00569,0.01138,0.02275,0.0091,0.00758,0.01517,,,,,,,0.0091,C=C(C)C1CC=C(C)C(=O)C1 (stereo not shown) [Carvone],,
,,,,,,,,,,1.25,,,,,C=CCc1ccc(OC)c(OC)c1 [Methyl eugenol],,Mechanisms of action (Candida auris [7]): • Reduced proteinase production and host cell adherence; MIC/Sensitivity (Candida auris [8]): 1.25 mg/mL; Mechanisms of action (Candida albicans [9]): • Reduced proteinase production
0.01013,0.0135,0.02025,0.00506,0.0081,0.00506,0.0135,0.01013,103.5348 to 6865.992,213.8811 to 431.8491,213.8811 to 13731.984,103.5348 to 3432.996,103.5348 to 429.1245,103.5348 to 1716.498,0.01013,C=C1CCC2CC1C2(C)C (stereo not drawn) [β-Pinene],,
